Source: patent publication US20230165970A1, “COMPOSITIONS AND METHODS FOR THE TREATMENT OF BACTERIAL INFECTIONS” (priority 2017, published 2023)
Converted amounts (≈) assume the structure as drawn. Like-named read-outs stand apart in the source and are kept apart here. *1 amine or outer side, *2 acyl side, *3 side chain or, on linkers, in order; H or OH if unused. Where a SMILES comes first, the peptide text is derived from it. Bridges are numbered along the chain shown (N, C = ends). Roman numbers before positions name the chains, in order. [ ]: non-standard residue; d: D form. The star is where a group is joined. X5 = C#CCOCCOCCOCCOCCN1C[C@@H](C(=O)[*:1])[C@H](C(=O)[*:2])C1; X2 = O=C([C@@H](N[*:1])[C@H](O)CCC(F)(F)F)[*:2]; Propargyl(OCH2CH2)4CO = C#CCOCCOCCOCCOCCC(=O)*; X3 = CCCCC[C@@H](O)[C@H](N[*:1])C(=O)[*:2]; azaDab = NCCN(N[*:1])C(=O)[*:2]; Aoc(2) = CCCCCC[C@H](N)C(=O)O; hLeu = CC(C)CC[C@H](N)C(=O)O; Nle = CCCC[C@H](N)C(=O)O; Dab = NCC[C@H](N)C(=O)O; azaGly = NNC(=O)O

Columns and labels:
A. baumannii AB5075 [1] = test: Lethal A. baumannii lung infection (mouse pneumonia) model, survival; assay type: in vivo, Acinetobacter baumannii; settings: mouse pneumonia model vs. AB5075; 5 mg/kg, twice intravenously, t=+1 h and +4 h; n=5
A. baumannii AB5075 [2] = test: Murine pneumonia model vs. A. baumannii AB5075 (survival); assay type: in vivo, C57BI/6J mice; settings: 1×10^8 CFU; for protection against lethal challenge (survival monitored 5 days): 5 mg/kg IV twice at t=+1 h and +4 h, n=5 (FIG. 118)
Protocol: (§1) The murine pneumonia model was adapted from Lin et al., 2015 (PMID: 26288841). A. baumannii AB5075 was grown to log-phase in LB at 37° C., 200 rpm shaking. Bacteria were washed once with PBS via centrifugation at 4,000 rpm. Bacteria were adjusted to the desired concentration in PBS.
Prior to infection, 8-week-old female C57BI/6J mice (Jackson Labs) were anesthetized with 100 mg/kg ketamine and 10 mg/kg xylazine. Using an otoscope, mice were infected non-invasively directly into the trachea.
Mice were infected with 5×10^7 CFU in 30 μL of PBS. Mice were treated intraperitoneally with different doses of conjugate 23 or hIgG1 (50 mpk) at t=−12 h pre-infection and t=+1 h post-infection or with colistin (10 mpk) or PBS at t=+1 h, 5 h, 24 h, 36 h, 48 h and 60 h post-infection.
Survival of mice (n=5 per group) was monitored for 5 days. […] Colistin was used as positive control resulting in 80% protection.
as §1, with “PBS. Prior to infection, 8-week-old female C57BI/6J mice (Jackson Labs) were anesthetized with 100 mg/kg ketamine and 10 mg/kg xylazine. Using an otoscope, mice were infected non-invasively directly into the trachea.” for “PBS.”
Mice were infected with 5×10^7 CFU in 30 μL of PBS. Mice were treated intraperitoneally with conjugate 34 or hIgG1 (50 mpk) at t=−12 h pre-infection.
Survival of mice (n=4 per group) was monitored for 5 days. A single dose of ADC conjugate 34 was protective (75% survival) against a lethal challenge with A. baumannii AB5075.
The murine pneumonia model was adapted from Lin et al., 2015 (PMID: 26288841). A. baumannii AB5075 was grown to log-phase in LB at 37° C., 200 rpm shaking. Bacteria were washed once with PBS via centrifugation at 4,000 rpm. Bacteria were adjusted to desired concentration in PBS. […]
The survival (n=5 per group) was monitored twice daily for 5 days. […]

A. baumannii AB5075 [3] = assay type: cell-based
Protocol: (§2) Overnight stationary-phase cultures were centrifuged at 3,500×g for 10 min at room temperature and resuspended in 1×PBS to an optical density at 600 nm (OD600) of 0.4 (1×10^8 colony forming units [CFU]/ml) in RPMI with L-glutamine and phenol red (Life Technologies). Bacteria were diluted 1:25 in RPMI ([…]) and 10 ul added to wells of a non-binding 96-well plate (Corning 3641) containing 80 ul of 50% hirudin anti-coagulated blood (complement active) in RPMI. […] MBC was defined as the minimum conjugate concentration required for bacterial clearance (Table 8A and Table 8B). An untreated growth control (40% blood, 0 ug/ml conjugate) was included in all assays as a growth comparator.
(§3) MBC was defined as the minimum compound concentration required for complete bacterial clearance (Table 18).
(§4) In most cases, 2-4 fold improvements in antibacterial activity for the conjugates are observed in the presence of complement active human blood.

E. coli ATCC 25922 = assay type: cell-based
Protocol: as §2, §3, §4

P. aeruginosa PAO1 = assay type: cell-based
Protocol: as §2, §3, §4

[4] = tested on: Ab AB58705 (COL^R) IpxD, mut. (no LPS); assay type: cell-based, Acinetobacter baumannii; settings: media CA-MHB
Ab 8990 (COL^R) = assay type: cell-based, Acinetobacter baumannii
Method in brief: (§5)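 Twofold dilution series of each agent received bacterial cells from MHA plates (saline, ~0.1 OD600 nm), with RPMI B medium used for drug conjugates. Plates were shaken and held at 35° C overnight (16-20 h). LES431 was tested in presence and absence of 50% heat-inactivated fetal bovine serum.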

Ab AB5075 = assay type: cell-based, Acinetobacter baumannii; settings: for MIC in RPMI AB 5075: pH 7.4
Method in brief: as §5

Compound	protection (survival over 5 days), FIG. 118 (A. baumannii AB5075 [1])	protection against lethal challenge (survival monitored 5 days) (A. baumannii AB5075 [2])	MBC in blood AB 5075 (A. baumannii AB5075 [3])	MBC in blood EC 25922 (E. coli ATCC 25922)	MBC in blood PA 01 (P. aeruginosa PAO1)	MIC [4]	MIC (Ab 8990 (COL^R); Ab 8990 (COL^R), media CA-MHB)	MIC (Ab AB5075)	MIC in RPMI AB 5075 (Ab AB5075)	protection (survival over 5 days), FIG. 119 (A. baumannii AB5075 [1])	survival (monitored 5 days) (A. baumannii AB5075 [2]; 10 mg/kg IV twice at t=+1 h and +4 h, n=5 (FIG. 119))	MIC (Ab 8990 (COL^R))	MIC (Ab AB5075; Ab AB5075, media CA-MHB)
C#CCOCCOCCOCCOCCC(=O)N[C@@H](CCC(C)C)C(=O)N[C@@H](CCN)C(=O)N[C@H](C(=O)NNC(=O)N[C@H]1CCNC(=O)[C@H]([C@@H](C)O)NC(=O)[C@H](CCN)NC(=O)[C@H](CCN)NC(=O)[C@H](CC(C)C)NC(=O)[C@@H](Cc2ccccc2)NC(=O)[C@H](CCN)NC1=O)[C@H](O)CCCCC [Int-116] ({Propargyl(OCH2CH2)4CO}-[hLeu][Dab][X3][azaGly][Dab][Dab][dF]L[Dab][Dab]T; lactam 5-C)	100%	fully protective	0.05 µg/mL (≈ 0.0346 µM)	0.2 µg/mL (≈ 0.138 µM)	>0.2 µg/mL	64 µg/mL (≈ 44.2 µM)	>128 µg/mL	1 µg/mL (≈ 0.691 µM)	1.05 µg/mL (≈ 0.726 µM)	–	–	–	–
C#CCOCCOCCOCCOCCC(=O)N[C@@H](CCC(C)C)C(=O)N[C@@H](CCN)C(=O)N[C@H](C(=O)NN(CCN)C(=O)N[C@H]1CCNC(=O)[C@H]([C@@H](C)O)NC(=O)[C@H](CCN)NC(=O)[C@H](CCN)NC(=O)[C@H](CC(C)C)NC(=O)[C@@H](Cc2ccccc2)NC(=O)[C@H](CCN)NC1=O)[C@@H](C)O [Int-127] ({Propargyl(OCH2CH2)4CO}-[hLeu][Dab]T[azaDab][Dab][Dab][dF]L[Dab][Dab]T; lactam 5-C)	–	–	0.1 µg/mL (≈ 0.0697 µM)	0.025 µg/mL (≈ 0.0174 µM)	0.1 µg/mL (≈ 0.0697 µM)	64 µg/mL (≈ 44.6 µM)	>128 µg/mL	2 µg/mL (≈ 1.39 µM)	1.00 µg/mL (≈ 0.697 µM)	–	–	–	–
C#CCOCCOCCOCCOCCC(=O)N[C@@H](CCCCCC)C(=O)N[C@@H](CCN)C(=O)N[C@H](C(=O)NN(CCN)C(=O)N[C@H]1CCNC(=O)[C@H]([C@@H](C)O)NC(=O)[C@H](CCN)NC(=O)[C@H](CCN)NC(=O)[C@H](CC(C)C)NC(=O)[C@@H](Cc2ccccc2)NC(=O)[C@H](CCN)NC1=O)[C@@H](C)O [Int-129] ({Propargyl(OCH2CH2)4CO}-[Aoc(2)][Dab]T[azaDab][Dab][Dab][dF]L[Dab][Dab]T; lactam 5-C)	–	–	–	–	–	–	–	2 µg/mL (≈ 1.38 µM)	–	60%	60%	128 µg/mL (≈ 88.4 µM)	–
C#CCOCCOCCOCCOCCC(=O)N[C@@H](CCCCCC)C(=O)N[C@@H](CCN)C(=O)N[C@H](C(=O)N[C@@H](CCN)C(=O)N[C@H]1CCNC(=O)[C@H]([C@@H](C)O)NC(=O)[C@H](CCN)NC(=O)[C@H](CCN)NC(=O)[C@H](CC(C)C)NC(=O)[C@@H](Cc2ccccc2)NC(=O)[C@H](CCN)NC1=O)[C@H](O)CCC(F)(F)F [Int-118] ({Propargyl(OCH2CH2)4CO}-[Aoc(2)][Dab][X2][Dab][Dab][Dab][dF]L[Dab][Dab]T; lactam 5-C)	40%	40%	0.025 µg/mL (≈ 0.0164 µM)	0.05 µg/mL (≈ 0.0327 µM)	>0.2 µg/mL	–	–	1 µg/mL (≈ 0.654 µM)	0.95 µg/mL (≈ 0.621 µM)	–	–	128 µg/mL (≈ 83.7 µM)	–
C#CCOCCOCCOCCOCCN1C[C@@H](C(=O)N[C@@H](CCCC)C(=O)N[C@@H](CCN)C(=O)N[C@H](C(=O)NNC(=O)N[C@H]2CCNC(=O)[C@H]([C@@H](C)O)NC(=O)[C@H](CCN)NC(=O)[C@H](CCN)NC(=O)[C@H](CC(C)C)NC(=O)[C@@H](Cc3ccccc3)NC(=O)[C@H](CCN)NC2=O)[C@@H](C)O)[C@H](C(=O)N[C@@H](CCCC)C(=O)N[C@@H](CCN)C(=O)N[C@H](C(=O)NNC(=O)N[C@H]2CCNC(=O)[C@H]([C@@H](C)O)NC(=O)[C@H](CCN)NC(=O)[C@H](CCN)NC(=O)[C@H](CC(C)C)NC(=O)[C@@H](Cc3ccccc3)NC(=O)[C@H](CCN)NC2=O)[C@@H](C)O)C1 [Int-120] (I: [Nle][Dab]T[azaGly][Dab][Dab][dF]L[Dab][Dab]T / II: [Nle][Dab]T[azaGly][Dab][Dab][dF]L[Dab][Dab]T; lactam I:5-I:C, II:5-II:C; linker I:N-II:N via X5)	–	–	–	–	–	4 µg/mL (≈ 1.53 µM)	>128 µg/mL	–	–	–	–	–	2 µg/mL (≈ 0.767 µM)
